Laboratory results as given in patent US10961238B2, “Modulators of hedgehog (Hh) signaling pathway” (E-THERAPEUTICS PLC, priority 2016, dated 2021).

Key:
[1] = tested on: SMO L416F mutant cell line; assay: C3H10T1/2 cell differentiation assay in SMO L416F mutant cell line versus wild type; format: cell-based, mouse; conditions: SMO L416F mutant cell line compared to the wild type, C3H10T1/2 cell differentiation assay
Text: FIG. 1 is a graph of the percent inhibition of C3H10T1/2 cell differentiation of vismodegib compared to compound of the invention (compound number 174), in wild type versus SMO L416F mutant cell line.
Loss of Potency in C3H10T1/2 Cell Differentiation Assay Associated with Presence of SMO L416F Mutation.
Table 3 below details the number of fold reduction in potency of a range of compounds of the invention when applied to the SMO L416F mutant cell line compared to the wild type. SMO mutation has been described in the literature (Pricl, Sabrina, et al.) as a key mutation causative of vismodegib resistance in the clinic by interfering with drug binding.

C3H10T1/2 cells = assay: C3H assay: differentiation of C3H10T1/2 cells by mSHH, measurement of alkaline phosphatase; format: cell-based, mouse; conditions: Mus musculus, C3H 10T1/2; C3H10T1/2 cells stimulated with mSHH for 72 hours; alkaline phosphatase activity; read-out: IC50 Ranges
SMO = target: T1, SMO (Homo sapiens, UniProt Q99835); assay: Smoothened (SMO) binding fluorescence polarisation assay (BODIPY-cyclopamine competition); conditions: SMO binding FP assay versus C3H10T1/2 cellular assay
T1 construct: expressed in transfected cells; host or cells: HEK293
Method: Standard Protocol for Smoothened (SMO) Binding Fluorescence Polarisation Assay.
The assay measures the ability of the test compounds to compete with a fluorescently-labelled version of the known ligand, cyclopamine, for binding to SMO. The fluorescent tag used is BODIPY (boron dipyrromethene).
An aliquot of a membrane preparation from a SMO-over-expressing HEK293 cell line is diluted to protein concentration of 0.117 mg/ml in assay buffer (25 mM HEPES, 2 mM EDTA, 0.05% γ-globulin, 0.01% pluronic acid pH7.4, plus protease Inhibitor cocktail). 8.5 μl of the membrane suspension is added to each well of a black, low volume 384 well microtitre plate.
Test compounds are added in a seven point dilution range to the wells containing the membrane preparation. The final DMSO solvent concentration in the wells is maintained at 0.3%. 6.5 μl of a 6.9 nM BODIPY-cyclopamine solution is added to each of the wells (final assay concentration 3 nM).
The plate is sealed and stored in the dark at room temperature for 24 hours prior to measurement of the fluorescence polarisation signal on a Perkin Elmer Envision multi-label reader.
Table 4 below details the ratio of SMO binding compared to the potency in the C3H10T1/2 cellular assay. The small ratio between SMO binding and potency for vismodegib is considered to be reflective of the fact vismodegib acts mainly through inhibition of the SMO protein. The larger ratios for the compound of the invention are considered to be reflective of alternate actions outside of direct SMO inhibition.

T1 sequence (Q99835 28-787): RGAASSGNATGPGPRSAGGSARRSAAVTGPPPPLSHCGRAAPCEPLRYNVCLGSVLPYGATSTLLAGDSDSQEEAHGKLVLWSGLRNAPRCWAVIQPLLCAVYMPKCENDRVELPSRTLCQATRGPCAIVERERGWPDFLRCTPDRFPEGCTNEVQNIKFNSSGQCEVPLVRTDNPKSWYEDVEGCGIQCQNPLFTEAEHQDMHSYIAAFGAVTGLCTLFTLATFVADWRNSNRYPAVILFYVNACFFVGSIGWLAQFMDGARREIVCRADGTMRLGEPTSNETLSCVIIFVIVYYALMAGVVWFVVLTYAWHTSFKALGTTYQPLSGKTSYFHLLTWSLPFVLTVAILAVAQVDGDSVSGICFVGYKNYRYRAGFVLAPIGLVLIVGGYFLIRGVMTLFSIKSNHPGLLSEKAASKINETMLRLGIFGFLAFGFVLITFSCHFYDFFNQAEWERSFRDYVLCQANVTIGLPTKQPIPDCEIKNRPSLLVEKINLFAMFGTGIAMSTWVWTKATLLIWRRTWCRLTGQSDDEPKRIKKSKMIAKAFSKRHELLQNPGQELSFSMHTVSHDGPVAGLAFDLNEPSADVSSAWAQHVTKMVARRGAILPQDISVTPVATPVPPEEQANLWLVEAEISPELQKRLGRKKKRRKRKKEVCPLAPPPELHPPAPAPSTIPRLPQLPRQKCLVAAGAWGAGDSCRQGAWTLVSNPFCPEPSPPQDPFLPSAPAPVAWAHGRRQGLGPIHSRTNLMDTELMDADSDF

Row | SMILES | IC50 (C3H10T1/2 cells) | Ratio of potency in SMO binding assay to potency in C3H10T1/2 cellular assay (SMO) | Fold reduction in potency in SMO L416F mutant cell line [1]
1 | O=C(N1CCOCC1)N1CC(S(=O)(=O)N2CCC(c3c[nH]c4ncccc34)CC2)C1 [Compound 88, morpholin-4-yl-[3-[4-(1H-pyrrolo[2,3-b]pyridin-3-yl)piperidin-1-yl]sulfonylaze-tidin-1-yl]methanone] | 100 to 1000 nM | – | 27
2 | O=C(NCCS(=O)(=O)N1CCC(c2c[nH]c3ncccc23)CC1)OC1CCCCC1 [Compound 292, cyclohexyl N-[2-[4-(1H-pyrrolo-[2,3-b]pyridin-3-yl)piperidin-1-yl]sulfonylethyl] carbamate] | 100 to 1000 nM | 4.3 | –
3 | Cc1noc(C)c1NC(=O)N1CC(S(=O)(=O)N2CCC(c3nc4ccccc4s3)CC2)C1 [Compound 294, 3-[4-(1,3-benzothiazol-2-yl)piperidin-1-yl]sulfonyl-N-(3,5-dimethyl-1,2-oxazol-4-yl)azetidine-1-carboxamide] | 100 to 1000 nM | 5.0 | –
4 | O=C([C@H]1C[C@@H](S(=O)(=O)N2CCC(c3c[nH]c4ncccc34)CC2)C1)N1CCOCC1 [Compound 296, cis-morpholin-4-yl-[3-[4-(1H-pyrrolo[2,3-b]pyridin-3-yl)piperidin-1-yl]sulfonylcyclobutyl] methanone] | 100 to 1000 nM | 3.8 | –
5 | O=C([C@H]1C[C@H](S(=O)(=O)N2CCC(c3c[nH]c4ncccc34)CC2)C1)N1CCOCC1 [Compound 308, trans-morpholin-4-yl-[3-[4-(1H-pyrrolo [2,3-b]pyridin-3-yl)piperidin-1-yl]sulfonyl-cyclobutyl] methanone] | 100 to 1000 nM | 4.8 | –
6 | C[C@@H](NC(=O)N1CC(S(=O)(=O)N2CCC(c3coc4cccnc34)CC2)C1)C(F)(F)F [Compound 328, 3-(4-furo[3,2-b]pyridin-3-ylpiperidin-1-yl)sulfonyl-N-[(2R)-1,1,1-trifluoropropan-2-yl]azetidine-1-carboxamide] | 10 to 100 nM | 3.2 | –
7 | O=C(CC(O)(C(F)(F)F)C(F)(F)F)N1CC(S(=O)(=O)N2CCC(c3coc4cccnc34)CC2)C1 [Compound 334, 4,4,4-trifluoro-1-[3-(4-furo[3,2-b]pyridin-3-ylpiperidin-1-yl)sulfonylaze-tidin-1-yl]-3-hydroxy-3-(trifluoromethyl) butan-1-one] | 10 to 100 nM | 2.6 | –
8 | C[C@](O)(C(=O)N1CC(S(=O)(=O)N2CCC(c3c[nH]c4ncccc34)CC2)C1)C(F)(F)F [Compound 388, (2S)-3,3,3-trifluoro-2-hydroxy-2-methyl-1-[3-[4-(1H-pyrrolo[2,3-b]pyridin-3-yl)piperidin-1-yl]sulfonylaze-tidin-1-yl]propan-1-one] | 10 to 100 nM | 5.4 | –
9 | CC(C)(O)CC(=O)N1CC(S(=O)(=O)N2CCC(c3c[nH]c4ncccc34)CC2)C1 [Compound 397, 3-hydroxy-3-methyl-1-[3-[4-(1H-pyrrolo[2,3-b]pyridin-3-yl)piperidin-1-yl]sulfonylaze-tidin-1-yl]butan-1-one] | 100 to 1000 nM | 3.6 | –
10 | O=C(CC(O)(C(F)(F)F)C(F)(F)F)N1CC(S(=O)(=O)N2CCC(c3ccncc3)CC2)C1 [Compound 401, 4,4,4-trifluoro-3-hydroxy-1-[3-(4-pyridin-4-ylpiperidin-1-yl)sulfonylaze-tidin-1-yl]-3-(trifluoromethyl) butan-1-one] | 100 to 1000 nM | 3.0 | –
11 | CC(C)(C)OC(=O)N1CC(S(=O)(=O)N2CCC(c3ccnc4ccccc34)CC2)C1 [Compound 410, tert-butyl 3-(4-quinolin-4-ylpiperidin-1-yl)sulfonylaze-tidine-1-carboxylate] | 100 to 1000 nM | 3.1 | –

More lines, main results first:

Row | IC50 (C3H10T1/2 cells) | Ratio of potency in SMO binding assay to potency in C3H10T1/2 cellular assay (SMO) | SMILES | Fold reduction in potency in SMO L416F mutant cell line [1]
12 | 10 to 100 nM | – | CC(C)C(CO)NC(=O)N1CC(S(=O)(=O)N2CCC(c3c[nH]c4ncccc34)CC2)C1 (racemic) [Compound 26, N-[1-(Hydroxymethyl)-2-methyl-propyl]-3-[[4-(1H-pyrrolo[2,3-b]pyridin-3-yl)-1-piperidyl]sulfonyl]azetidine-1-carboxamide] | 67
13 | 10 to 100 nM | – | O=C(OC1CCCCC1)N1CC(S(=O)(=O)N2CCC(c3c[nH]c4ncccc34)CC2)C1 [Compound 75, cyclohexyl 3-[4-(1H-pyrrolo[2,3-b]pyridin-3-yl)piperidin-1-yl]sulfonylaze-tidine-1-carboxylate] | 60
14 | 10 to 100 nM | – | O=C(NCCc1cccs1)N1CC(S(=O)(=O)N2CCC(c3c[nH]c4ncccc34)CC2)C1 [Compound 84, 3-[4-(1H-pyrrolo[2,3-b]pyridin-3-yl)piperidin-1-yl]sulfonyl-N-(2-thiophen-2-ylethyl)azetidine-1-carboxamide] | 50
15 | 10 to 100 nM | – | Cc1noc(C)c1NC(=O)N1CC(S(=O)(=O)N2CCC(c3c[nH]c4ncccc34)CC2)C1 [Compound 120, N-(3,5-dimethyl-1,2-oxazol-4-yl)-3-[4-(1H-pyrrolo[2,3-b]pyridin-3-yl)piperidin-1-yl]sulfonylaze-tidine-1-carboxamide] | 38
16 | 100 to 1000 nM | 4.9 | O=C(NC1(C(F)(F)F)CC1)[C@H]1C[C@H](S(=O)(=O)N2CCC(c3c[nH]c4ncccc34)CC2)C1 [Compound 298, trans-3-[4-(1H-pyrrolo[2,3-b]pyridin-3-yl)piperidin-1-yl]sulfonyl-N-[1-(trifluoromethyl)cyclopropyl] cyclobutane-1-carboxamide] | –
17 | 100 to 1000 nM | 2.7 | O=S(=O)(C1CN(CC2(C(F)(F)F)CC2)C1)N1CCC(c2c[nH]c3ncccc23)CC1 [Compound 313, 3-[1-[1-[[1-(trifluoromethyl)cyclopropyl]methyl]azetidin-3-yl]sulfonylpiperidin-4-yl]-1H-pyrrolo[2,3-b]pyridine] | –
18 | 10 to 100 nM | 6.7 | CC(C)(C)C(=O)CN1CC(S(=O)(=O)N2CCC(c3c[nH]c4ncccc34)CC2)C1 [Compound 314, 3,3-dimethyl-1-[3-[4-(1H-pyrrolo[2,3-b]pyridin-3-yl)piperidin-1-yl]sulfonylaze-tidin-1-yl]butan-2-one] | –
19 | 10 to 100 nM | 2.9 | CC(C)(C)NC(=O)N1CC(S(=O)(=O)N2CCC(c3ccc(Cl)cc3)CC2)C1 [Compound 319, N-tert-butyl-3-[4-(4-chlorophenyl)piperidin-1-yl]sulfonylaze-tidine-1-carboxamide] | –
20 | 10 to 100 nM | 2.5 | O=C(CC(O)(C(F)(F)F)C(F)(F)F)N1CC(S(=O)(=O)N2CCC(c3c[nH]c4ncccc34)CC2)C1 [Compound 333, 4,4,4-trifluoro-3-hydroxy-1-[3-[[4-(1H-pyrrolo[2,3-b]pyridin-3-yl)-1-piperidyl]sulfonyl]azetidin-1-yl]-3-(trifluoromethyl)butan-1-one] | –
21 | 10 to 100 nM | 3.8 | Cc1ccc2c(C3CCN(S(=O)(=O)C4CN(C(=O)OC(C)(C)C)C4)CC3)c[nH]c2n1 [Compound 347, tert-butyl 3-[4-(6-methyl-1H-pyrrolo [2,3-b]pyridin-3-yl)piperidin-1-yl]sulfonylaze-tidine-1-carboxylate] | –
22 | 100 to 1000 nM | 2.6 | C[C@](O)(C(=O)N1CC(S(=O)(=O)N2CCC(c3coc4cccnc34)CC2)C1)C(F)(F)F [Compound 395, (2S)-3,3,3-trifluoro-1-[3-(4-furo[3,2-b]pyridin-3-ylpiperidin-1-yl)sulfonyl-azetidin-1-yl]-2-hydroxy-2-methylpropan-1-one] | –
23 | 100 to 1000 nM | 2.5 | CC(C)(C)C(=O)CN1CC(S(=O)(=O)N2CCC(c3ccc(Cl)cc3)CC2)C1 [Compound 396, 1-[3-[4-(4-chlorophenyl)piperidin-1-yl]sulfonylaze-tidin-1-yl]-3,3-dimethylbutan-2-one] | –
